In ChEMBL document CHEMBL5143714, “Discovery of BMS-986339, a Pharmacologically Differentiated Farnesoid X Receptor Agonist for the Treatment of Nonalcoholic Steatohepatitis” (J Med Chem, 2022):

Assays:
[1] = Metabolic stability in rat liver microsome assessed as parent compound remaining at 1 mg/mL measured after 10 mins; assay type: ADME; conditions: liver microsomes, read-out: Stability
[2] = Metabolic stability in human liver microsome assessed as parent compound remaining at 1 mg/mL measured after 10 mins; assay type: ADME; conditions: liver microsomes, read-out: Stability
[3] = molecular target: T1, Bile acid receptor (Mus musculus) (UniProt Q60641); assay: Agonist activity at LBD-fused mouse FXR in HEK293 cells incubated for 30 min by envision plate reader method relative to GW2064; assay type: cell-based; conditions: filed as agonist
T1 sequence (whole entry): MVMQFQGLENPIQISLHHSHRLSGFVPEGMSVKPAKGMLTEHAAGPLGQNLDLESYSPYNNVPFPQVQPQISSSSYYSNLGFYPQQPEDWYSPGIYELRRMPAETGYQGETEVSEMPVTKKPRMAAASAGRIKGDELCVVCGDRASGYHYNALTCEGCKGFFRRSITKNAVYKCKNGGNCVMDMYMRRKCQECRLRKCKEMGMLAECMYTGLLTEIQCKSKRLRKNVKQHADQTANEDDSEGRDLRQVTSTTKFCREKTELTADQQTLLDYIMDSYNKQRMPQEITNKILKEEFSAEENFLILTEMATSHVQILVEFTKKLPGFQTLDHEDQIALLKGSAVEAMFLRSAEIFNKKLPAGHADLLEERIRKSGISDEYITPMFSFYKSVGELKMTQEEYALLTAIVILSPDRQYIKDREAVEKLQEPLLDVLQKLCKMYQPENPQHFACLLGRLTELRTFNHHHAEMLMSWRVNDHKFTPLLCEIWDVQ

[4] = Metabolic stability in mouse liver microsome assessed as parent compound remaining at 1 mg/mL measured after 10 mins; assay type: ADME; conditions: liver microsomes, read-out: Stability
Bile acid receptor [5] = molecular target: T2, Bile acid receptor (Homo sapiens, UniProt Q96RI1); assay: Agonist activity at Gal4-fused human FXR in HEK293 cells incubated for 15 min by luciferase reporter assay; assay type: cell-based
T2 sequence (Q96RI1 whole entry): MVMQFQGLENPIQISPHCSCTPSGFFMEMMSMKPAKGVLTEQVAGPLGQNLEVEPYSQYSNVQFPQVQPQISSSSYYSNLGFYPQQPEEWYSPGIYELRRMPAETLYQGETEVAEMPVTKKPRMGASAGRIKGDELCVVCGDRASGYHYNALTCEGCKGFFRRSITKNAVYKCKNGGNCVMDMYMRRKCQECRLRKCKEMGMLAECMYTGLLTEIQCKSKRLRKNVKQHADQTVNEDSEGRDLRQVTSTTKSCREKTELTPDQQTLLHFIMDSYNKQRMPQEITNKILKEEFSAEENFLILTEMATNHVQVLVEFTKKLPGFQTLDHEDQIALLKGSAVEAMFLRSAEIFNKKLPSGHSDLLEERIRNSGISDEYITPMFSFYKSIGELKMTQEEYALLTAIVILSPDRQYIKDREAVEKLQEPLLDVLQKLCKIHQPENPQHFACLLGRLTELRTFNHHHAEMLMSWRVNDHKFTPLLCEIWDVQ

[6] = test system: Bile acid receptor (Homo sapiens); assay: Agonist activity at human FXR expressed in HEK293 cells coexpressing IBABP relative to GW2064; conditions: filed as agonist
[7] = molecular target: T3, Bile acid receptor (Homo sapiens) (UniProt Q96RI1); assay: Agonist activity at LBD-fused human FXR in HEK293 cells incubated for 30 min by envision plate reader method relative to GW2064; assay type: cell-based
T3 sequence (whole entry): T2 sequence (Q96RI1 whole entry)

[8] = test system: Bile acid receptor (Homo sapiens); assay: Agonist activity at human FXR expressed in HEK293 cells coexpressing human FGF19 incubated for 24 hrs by ELISA analysis relative to GW2064
Bile acid receptor [9] = molecular target: T4, Bile acid receptor (Mus musculus, UniProt Q60641); assay: Agonist activity at mouse LBD fused FXR in HEK293 cells incubated for 30 min by envision plate reader method; assay type: cell-based
T4 sequence (Q60641 whole entry): T1 sequence (whole entry)

Row | Structure (SMILES) | remaining at 10 min, 1 mg/mL [1] [%] | remaining at 10 min [2] [%] | Emax [3] [%] | remaining at 10 min [4] [%] | EC50 (Bile acid receptor [5]) [nM] | Emax [6] [%] | Emax [7] [%] | Emax [8] [%] | EC50 (Bile acid receptor [9]) [nM]
1 | COC(=O)/C=C/c1cccc(N(CC23CCC(c4ccc(N(C)C)cc4)(CC2)CC3)C(=O)C2CCCCC2)c1 | 32 | 90 | 279 | 77 | 66 | 42 | 30 | 24 | –
2 | O=C(O)c1cc(C(F)(F)F)c2cc(N3CCC4(C=C(c5c(-c6c(Cl)cncc6Cl)noc5C5CC5)C4)CC3)ccc2n1 | – | – | – | – | – | – | – | – | 320
